Experimental data published in patent publication US11572590B2, “Methods for evaluating tumor cell spheroids using 3D microfluidic cell culture device” (Dana-Farber Cancer Institute, Inc., priority 2017, dated 2023).
Where two headings read alike, the source gives them in different places.

Columns and labels:
Assay in all cases: SelectScreen Kinase Profiling, single point inhibition and IC50 for off-target kinases
Type in all cases: biochemical
off-target kinases [1] = biological target: off-target kinases (Homo sapiens, UniProt P22607, K650M); conditions: FGFR3 K650M, mutant y, LanthaScreen Binding
Sequence of off-target kinases (Homo sapiens, UniProt P22607, K650M) (P22607 23-806 K650M): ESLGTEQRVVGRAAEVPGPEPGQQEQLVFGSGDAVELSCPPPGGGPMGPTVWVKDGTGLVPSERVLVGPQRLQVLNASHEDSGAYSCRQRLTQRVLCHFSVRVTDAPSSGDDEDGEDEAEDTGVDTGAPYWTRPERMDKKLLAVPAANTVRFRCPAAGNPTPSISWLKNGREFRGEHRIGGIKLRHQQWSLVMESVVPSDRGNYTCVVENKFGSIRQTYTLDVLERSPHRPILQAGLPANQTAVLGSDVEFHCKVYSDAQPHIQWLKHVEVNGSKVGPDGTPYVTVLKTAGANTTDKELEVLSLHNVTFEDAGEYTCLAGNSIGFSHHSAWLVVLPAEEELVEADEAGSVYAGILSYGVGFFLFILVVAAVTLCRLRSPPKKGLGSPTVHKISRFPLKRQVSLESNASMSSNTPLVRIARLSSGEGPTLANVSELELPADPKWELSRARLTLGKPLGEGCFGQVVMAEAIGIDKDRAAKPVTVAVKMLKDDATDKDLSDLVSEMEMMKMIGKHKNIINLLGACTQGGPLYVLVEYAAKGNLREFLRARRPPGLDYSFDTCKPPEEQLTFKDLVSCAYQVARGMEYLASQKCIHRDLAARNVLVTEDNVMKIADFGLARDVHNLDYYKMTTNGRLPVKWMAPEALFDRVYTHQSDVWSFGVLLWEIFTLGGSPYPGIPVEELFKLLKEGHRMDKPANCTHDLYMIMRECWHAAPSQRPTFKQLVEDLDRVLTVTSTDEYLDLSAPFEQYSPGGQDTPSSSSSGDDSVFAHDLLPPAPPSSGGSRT

off-target kinases [2] = biological target: T1, off-target kinases (Homo sapiens, UniProt Q12866); conditions: MERTK (cMER), ZLYTE, ATP Km app
T1 sequence (Q12866 21-999): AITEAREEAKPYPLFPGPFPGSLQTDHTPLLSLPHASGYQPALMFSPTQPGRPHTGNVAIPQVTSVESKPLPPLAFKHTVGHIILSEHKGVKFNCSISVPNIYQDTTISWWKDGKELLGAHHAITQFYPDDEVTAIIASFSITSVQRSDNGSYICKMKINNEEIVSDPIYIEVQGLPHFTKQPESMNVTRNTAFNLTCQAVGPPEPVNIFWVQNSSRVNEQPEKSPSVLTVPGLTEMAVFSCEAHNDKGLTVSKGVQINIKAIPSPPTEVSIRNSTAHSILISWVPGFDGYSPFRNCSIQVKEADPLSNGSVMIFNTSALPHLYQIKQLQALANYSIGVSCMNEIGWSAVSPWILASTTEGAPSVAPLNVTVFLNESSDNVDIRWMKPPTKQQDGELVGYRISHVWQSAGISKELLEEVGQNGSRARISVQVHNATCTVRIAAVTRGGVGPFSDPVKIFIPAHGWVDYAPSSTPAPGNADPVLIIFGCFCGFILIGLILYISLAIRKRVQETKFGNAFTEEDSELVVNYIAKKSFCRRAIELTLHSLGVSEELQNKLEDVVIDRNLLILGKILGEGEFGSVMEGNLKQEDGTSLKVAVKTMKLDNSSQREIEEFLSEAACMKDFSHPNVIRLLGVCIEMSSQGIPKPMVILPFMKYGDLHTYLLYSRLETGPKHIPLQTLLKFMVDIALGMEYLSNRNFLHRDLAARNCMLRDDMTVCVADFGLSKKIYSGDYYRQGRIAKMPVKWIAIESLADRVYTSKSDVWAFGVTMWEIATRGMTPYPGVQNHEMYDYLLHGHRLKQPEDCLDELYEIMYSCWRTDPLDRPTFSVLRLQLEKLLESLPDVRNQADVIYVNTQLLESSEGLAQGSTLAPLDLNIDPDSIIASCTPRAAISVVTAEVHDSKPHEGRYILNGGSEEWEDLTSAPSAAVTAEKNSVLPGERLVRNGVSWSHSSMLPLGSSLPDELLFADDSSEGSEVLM

off-target kinases [3] = biological target: off-target kinases (Homo sapiens, UniProt Q9Y2H1); conditions: STK38L (NDR2), LanthaScreen Binding
Sequence of off-target kinases (Homo sapiens, UniProt Q9Y2H1) (Q9Y2H1 whole entry): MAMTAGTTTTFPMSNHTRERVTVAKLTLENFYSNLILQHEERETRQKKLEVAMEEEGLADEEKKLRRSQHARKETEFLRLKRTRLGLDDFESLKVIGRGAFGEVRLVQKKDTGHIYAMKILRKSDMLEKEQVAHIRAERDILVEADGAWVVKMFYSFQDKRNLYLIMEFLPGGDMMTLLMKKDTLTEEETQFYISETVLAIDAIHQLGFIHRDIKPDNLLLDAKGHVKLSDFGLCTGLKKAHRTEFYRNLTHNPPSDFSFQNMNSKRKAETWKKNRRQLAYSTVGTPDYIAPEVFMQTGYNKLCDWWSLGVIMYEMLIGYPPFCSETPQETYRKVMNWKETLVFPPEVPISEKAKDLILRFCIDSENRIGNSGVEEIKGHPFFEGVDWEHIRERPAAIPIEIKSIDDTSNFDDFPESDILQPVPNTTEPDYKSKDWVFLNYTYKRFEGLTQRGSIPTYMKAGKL

off-target kinases [4] = biological target: T2, off-target kinases (Homo sapiens, UniProt P52564, S207E/T211E); conditions: MAP2K6 (MKK6) S207E T211E (mutant), LanthaScreen Binding
T2 sequence (P52564 1-334 S207E/T211E): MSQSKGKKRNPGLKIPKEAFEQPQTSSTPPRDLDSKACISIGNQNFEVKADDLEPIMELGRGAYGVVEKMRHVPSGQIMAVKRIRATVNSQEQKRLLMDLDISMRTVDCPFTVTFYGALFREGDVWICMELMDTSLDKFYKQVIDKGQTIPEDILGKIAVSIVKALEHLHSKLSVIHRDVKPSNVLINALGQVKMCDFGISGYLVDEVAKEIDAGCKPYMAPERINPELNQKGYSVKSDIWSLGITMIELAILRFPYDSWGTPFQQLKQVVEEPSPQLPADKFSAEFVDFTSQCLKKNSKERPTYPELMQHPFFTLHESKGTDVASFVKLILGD

off-target kinases [5] = biological target: off-target kinases (Homo sapiens, UniProt P00519, M351T); conditions: ABL1 M351T, LanthaScreen Binding
off-target kinases [6] = biological target: off-target kinases (Homo sapiens, UniProt Q13153); conditions: PAK1, ZLYTE, ATP Km app
Sequence of off-target kinases (Homo sapiens, UniProt Q13153) (Q13153 whole entry): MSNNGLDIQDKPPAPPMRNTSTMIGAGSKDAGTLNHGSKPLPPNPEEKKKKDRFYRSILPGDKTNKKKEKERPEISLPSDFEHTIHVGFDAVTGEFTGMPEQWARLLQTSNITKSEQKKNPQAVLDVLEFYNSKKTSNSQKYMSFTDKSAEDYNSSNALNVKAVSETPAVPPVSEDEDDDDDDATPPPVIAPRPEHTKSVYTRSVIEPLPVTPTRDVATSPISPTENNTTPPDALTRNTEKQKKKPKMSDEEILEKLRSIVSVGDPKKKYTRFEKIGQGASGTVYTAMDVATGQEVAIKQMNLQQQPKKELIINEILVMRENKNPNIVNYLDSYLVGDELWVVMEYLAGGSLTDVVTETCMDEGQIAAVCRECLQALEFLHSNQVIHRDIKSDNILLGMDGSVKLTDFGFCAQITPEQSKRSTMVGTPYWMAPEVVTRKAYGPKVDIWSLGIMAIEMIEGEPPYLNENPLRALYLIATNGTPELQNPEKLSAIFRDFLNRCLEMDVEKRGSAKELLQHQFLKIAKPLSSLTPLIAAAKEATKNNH

SMILES: N#Cc1cc(-c2ncnc(Nc3ccc(N4CCN(C5COC5)CC4)cc3)n2)ccc1OC1CCOCC1 [Compound 1, 5-(4-((4-(4-(oxetan-3-yl)piperazin-1-yl)phenyl)amino)-1,3,5-triazin-2-yl)-2-((tetrahydro-2H-pyran-4-yl)oxy)benzonitrile]
- inhibition (off-target kinases [1]; read-out: % Inhibition 1): 33%
- inhibition (off-target kinases [1]; read-out: % Inhibition 2): 38%
- inhibition (off-target kinases [1]; read-out: % Inhibition Avg): 35%
- inhibition (off-target kinases [2]; read-out: % Inhibition 1): 27%
- inhibition (off-target kinases [2]; read-out: % Inhibition 2): 22%
- inhibition (off-target kinases [2]; read-out: % Inhibition Avg): 24%
- inhibition (off-target kinases [3]; read-out: % Inhibition 1): 30%
- inhibition (off-target kinases [3]; read-out: % Inhibition 2): 38%
- inhibition (off-target kinases [3]; read-out: % Inhibition Avg): 34%
- inhibition (off-target kinases [4]; read-out: % Inhibition 1): 5%
- inhibition (off-target kinases [4]; read-out: % Inhibition 2): 5%
- inhibition (off-target kinases [4]; read-out: % Inhibition Avg): 5%
- inhibition (off-target kinases [5]; read-out: % Inhibition 1): 65%
- inhibition (off-target kinases [5]; read-out: % Inhibition 2): 69%
- inhibition (off-target kinases [5]; read-out: % Inhibition Avg): 67%
- inhibition (off-target kinases [6]; read-out: % Inhibition 1): 8%
- inhibition (off-target kinases [6]; read-out: % Inhibition 2): 8%
- inhibition (off-target kinases [6]; read-out: % Inhibition Avg): 8%
